# Several values for one entry are separate records, joined by “and”; a condition that tells them apart may be missing. Equal entries are not always repeated.
# Legend:
# [1] = system: RANKL-induced resorption pits; assay: Hydroxyapatite resorption assay; format: cell-based, mouse; conditions: for bone resorption / RANKL-induced resorption pits: in words
# Description: BMMs (1 × 10^5 cells/well) were cultured onto 6-well collagen-coated plates and stimulated with 100 ng/mL sRANKL and 10 ng/mL M-CSF for 3 days to generate early stage of osteoclasts began differentiation. Then early-stage osteoclasts were gently harvested using cell dissociation solution, and seeded into OsteoAssay Surface (hydroxyapatite-coated) 24-well plates. Early-stage osteoclasts were continue incubated in a medium containing sRANKL and M-CSF with or without treatment. After 48 h, wells were bleached to remove cells, followed by image acquisition for the measurement of resorbed areas using a Leica microscope. The percentage of surface resorbed was analyzed using ImageJ software.
# [2] = system: sRANKL induced osteoclast differentiation; assay: In vitro anti-osteoclastogenesis activity determination (TRAP staining); format: cell-based, mouse; parameters: key to inhibition of osteoclastogenesis, dose-response (fig. S2a): % inhibition = 100 − (treated−unstimulated)/(untreated−unstimulated)×100; conditions: for OC inhibitory ratio, sRANKL induced (fig. 3c IC50 curve data): replicates
# Method in brief: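 Mouse bone-marrow macrophages in 10 ng/mL M-CSF were stimulated with 100 ng/mL sRANKL plus compound at 9 concentrations, refreshed every 2 days, triplicate wells. After 5 days TRAP-stained osteoclasts were counted; inhibition normalised to untreated and unstimulated controls, IC50 by nonlinear regression.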
# [3] = In vitro cytotoxicity assay (MTT); format: cell-based, mouse; conditions: mouse, RAW264.7 cells; for viability at 24 h, 0.08 μM: conc. 0.08 μM; for viability at 24 h, 10 μM: conc. 10 μM; for CC50 at 24 h: RAW264.7, MTT
# Method in brief: (§1)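 Log-phase cells were seeded at 6 × 10^3 per well and incubated 24 h, with viability read by MTT. Growth inhibition (%) was calculated from OD relative to vehicle wells. CC50 came from nonlinear regression curve fitting.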
# RAW264.7 cells = assay: In vitro cytotoxicity assay (MTT); format: cell-based, mouse
# Method in brief: as §1
# OVX rats = assay: Osteoporosis therapeutic study in OVX rats (micro-CT); format: in vivo, rat; parameters: Tb.N: unit not given beside the values; conditions: for BV/TV / Tb.N / Tb.Sp / Tb.Th: individual animals; for BV/TV of OVX rats: oral 10 mg/kg/day, 12 weeks, in words
# Description: Female SD rats or C57BL/6 mice were cared until they grown up to 6 months old or 10 weeks old, respectively. Then we subjected them to either bilateral ovariectomy or sham operation after anesthesia with 10% chloral hydrate (0.3 mL/100 g). Then all the rats or mice were intramuscular injected of penicillin to prevent infection in the first week of surgery. For rat experiments, after 12 weeks of operation, 3 rats from sham-operated or ovariectomized groups were random selected to determine bone mass by micro-CT imaging biopsy to verify successful produced bone loss(data unshown). Then the OVX rats were individually administrated with S3-15, S3, and S3-05 orally with (10 mg/kg/day) for another 12 weeks. For mouse experiments, after 4 weeks of surgery, the OVX mice were treated with 10 mg/kg/day S3-15 for another 4 weeks.
# The weight of rats or mice were recorded every week in the treatment period. After treatment, the rats were harvested, the serum, heart, liver, spleen, lung, kidney, thymus, and femurs were all collected and subjected to subsequent analysis. The right femurs of rats or mice were cleaned excess soft tissue, fixed in 10% formalin, and processed them for microcomputed tomography (micro-CT) analysis. Left mice femurs were collected and excarnate for biomechanical strength testing. Mice peripheral blood were as well as collected for flow cytometry analyzing.
# The right femurs of rats or mice were further analyzed with micro-CT on Inveon PET/CT (Siemens, Germany). We used micro-CT to scan the femur from the femoral head to the femoral condyle, using 19 μm resolution, 80 kV 500uA, 360 projection, 3000-6000 image threshold, full rotation cone beam. Three-dimensional reconstruction and histomorphometric analyses of trabecular bone were conducted with the IAW (Inveon analysis workstation) analysis software. The trabecular extended 1 mm (rat) or 0.5 mm (mice) proximally to the end of the distal growth plate over 2 mm (rats) or 1 mm (mice) toward the diaphysis was selected as the region of interest (ROI) for the analysis. The resulting two-dimensional images of trabecular bone in relative cross sections were shown in grayscale. Trabecular bone parameters were measured including bone volume/tissue volume (BV/TV), bone surface area/bone volume (BS/BV), trabecular number (Tb.N), trabecular thickness (Tb.Th), trabecular separation(Tb.Sp) and trabecular pattern factor(Tb.P.F).
# [4] = read-out: cell viability relative to 0 μM (fig. S5e)
# [5] = OVX rats, S3-15 oral 10 mg/kg/day 12 weeks, 10 mg/kg/day
smiles,measurement,setting,value
CCOC(=O)c1sc(NC(=O)/C(=N/Nc2ccc(O)cc2C(=O)O)C(C)=O)nc1C [S3-05],bone resorption / RANKL-induced resorption pits,[1],suppresses RANKL-induced resorption
same,IC50,"[2]; Mus musculus, Osteoclast, 120 h, BMMs, M-CSF + 100 ng/mL sRANKL, 5 days, TRAP staining, read-out: OC IC50 (anti-osteoclastogenesis activity)",0.41 µM
same,inhibition at 0.00774313 µM,"[2]; Mus musculus, Osteoclast, conc. 0.00774313 μM, three replicate columns, read-out: inhibition of osteoclastogenesis, dose-response (fig. S2a)",10.9%
same,inhibition at 0.0255523 µM,"[2]; Mus musculus, Osteoclast, conc. 0.0255523 μM, three replicate columns, read-out: inhibition of osteoclastogenesis, dose-response (fig. S2a)",21.5%
same,inhibition at 0.0843226 µM,"[2]; Mus musculus, Osteoclast, conc. 0.0843226 μM, three replicate columns, read-out: inhibition of osteoclastogenesis, dose-response (fig. S2a)",24.5%
same,inhibition at 0.278265 µM,"[2]; Mus musculus, Osteoclast, conc. 0.278265 μM, three replicate columns, read-out: inhibition of osteoclastogenesis, dose-response (fig. S2a)",45.8%
same,inhibition at 0.918274 µM,"[2]; Mus musculus, Osteoclast, conc. 0.918274 μM, three replicate columns, read-out: inhibition of osteoclastogenesis, dose-response (fig. S2a)",58.5%
same,inhibition at 3.0303 µM,"[2]; Mus musculus, Osteoclast, conc. 3.0303 μM, three replicate columns, read-out: inhibition of osteoclastogenesis, dose-response (fig. S2a)",78.9%
same,inhibition at 10 µM,"[2]; Mus musculus, Osteoclast, conc. 10 μM, three replicate columns, read-out: inhibition of osteoclastogenesis, dose-response (fig. S2a)",86.2%
same,inhibition at 33 µM,"[2]; Mus musculus, Osteoclast, conc. 33 μM, three replicate columns, read-out: inhibition of osteoclastogenesis, dose-response (fig. S2a)",98.5%
same,"inhibition of osteoclastogenesis, dose-response (fig. S2a)","[2]; conc. 0.0023464 μM, three replicate columns",5.216 and -0.5015 and 0.1003
same,"inhibition of osteoclastogenesis, dose-response (fig. S2a)","[2]; conc. 0.00774313 μM, three replicate columns",7.021 and 8.826
same,"inhibition of osteoclastogenesis, dose-response (fig. S2a)","[2]; conc. 0.0255523 μM, three replicate columns",18.7563 and 13.6409
same,"inhibition of osteoclastogenesis, dose-response (fig. S2a)","[2]; conc. 0.0843226 μM, three replicate columns",23.8716
same,"inhibition of osteoclastogenesis, dose-response (fig. S2a)","[2]; conc. 0.278265 μM, three replicate columns",51.2538 and 38.6159
same,"inhibition of osteoclastogenesis, dose-response (fig. S2a)","[2]; conc. 0.918274 μM, three replicate columns",65.3962 and 65.0953
same,"inhibition of osteoclastogenesis, dose-response (fig. S2a)","[2]; conc. 3.0303 μM, three replicate columns",74.4233 and 77.4323
same,"inhibition of osteoclastogenesis, dose-response (fig. S2a)","[2]; conc. 10 μM, three replicate columns",87.0612 and 88.2648
same,"inhibition of osteoclastogenesis, dose-response (fig. S2a)","[2]; conc. 33 μM, three replicate columns",99.3982 and 99.6991
same,"viability at 24 h, 0.08 μM",[3]; [4],98.4%
same,"viability at 24 h, 0.28 μM","[3]; conc. 0.28 μM, read-out: cell viability relative to 0 μM (fig. S5e)",118%
same,"viability at 24 h, 0.92 μM","[3]; conc. 0.92 μM, read-out: cell viability relative to 0 μM (fig. S5e)",132%
same,"viability at 24 h, 3.03 μM","[3]; conc. 3.03 μM, read-out: cell viability relative to 0 μM (fig. S5e)",127%
same,"viability at 24 h, 10 μM",[3]; [4],113%
same,CC50 at 24 h,[3],93.9 µM
same,cell viability relative to 0 μM (fig. S5e),RAW264.7 cells; conc. 0.08 μM,112.115 and 113.045
same,cell viability relative to 0 μM (fig. S5e),RAW264.7 cells; conc. 0.28 μM,104.323 and 119.674
same,cell viability relative to 0 μM (fig. S5e),RAW264.7 cells; conc. 0.92 μM,131.188 and 122
same,cell viability relative to 0 μM (fig. S5e),RAW264.7 cells; conc. 3.03 μM,125.024 and 127.118
same,cell viability relative to 0 μM (fig. S5e),RAW264.7 cells; conc. 10 μM,125.722 and 115.72
same,BV/TV,OVX rats; OVX + compound,0.3016 and 0.3941 and 0.3094 and 0.3401 and 0.3769 and 0.3486 and 0.3669 and 0.2495
same,Tb.N,OVX rats; OVX + compound,0.07827 and 0.1011 and 0.07596 and 0.08201 and 0.08333 and 0.08879 and 0.08221 and 0.07582
same,Tb.Sp,OVX rats; OVX + compound,0.1812 and 0.1554 and 0.1695 and 0.1592 and 0.1377 and 0.1659 and 0.1419 and 0.2281
same,Tb.Th,OVX rats; OVX + compound,3.854 and 3.899 and 4.073 and 4.146 and 4.523 and 3.9259 and 4.463 and 3.291
same,BV/TV of OVX rats,OVX rats,increased
CC(=O)/C(=N\Nc1ccccc1C(=O)O)C(=O)Nc1ccccn1 [S3-15],resorption pits area quantification (fig. 6g),"[1]; S3-15 0.1 μM, vehicle 95, 90, 94",80 and 85 and 76
same,resorption pits area quantification (fig. 6g),[1]; S3-15 1 μM,57 and 64 and 65
same,resorption pits area quantification (fig. 6g),[1]; S3-15 10 μM,34 and 29 and 27
same,bone resorption / RANKL-induced resorption pits,[1],attenuated bone resorption in a dose-dependent manner
same,"OC inhibitory ratio, sRANKL induced (fig. 3c IC50 curve data)",[2]; 0.003 μM,7.9602 and 6.219 and 4.726
same,"OC inhibitory ratio, sRANKL induced (fig. 3c IC50 curve data)",[2]; 0.01 μM,-4.229 and 6.965 and 4.975
same,"OC inhibitory ratio, sRANKL induced (fig. 3c IC50 curve data)",[2]; 0.03 μM,19.1542 and 29.1045 and 33.5821
same,"OC inhibitory ratio, sRANKL induced (fig. 3c IC50 curve data)",[2]; 0.1 μM,31.8408 and 36.5672 and 39.0547
same,"OC inhibitory ratio, sRANKL induced (fig. 3c IC50 curve data)",[2]; 0.3 μM,40.2985 and 51.7413 and 33.8308
same,"OC inhibitory ratio, sRANKL induced (fig. 3c IC50 curve data)",[2]; 1 μM,50.7463 and 58.209 and 52.4876
same,"OC inhibitory ratio, sRANKL induced (fig. 3c IC50 curve data)",[2]; 3.3 μM,76.6169 and 75.8706 and 78.607
same,"OC inhibitory ratio, sRANKL induced (fig. 3c IC50 curve data)",[2]; 10 μM,91.791 and 91.0448 and 90.2985
same,"OC inhibitory ratio, sRANKL induced (fig. 3c IC50 curve data)",[2]; 33 μM,99.005 (2×) and 98.5075
same,"viability at 24 h, 0.08 μM",[3]; [4],107%
same,"viability at 24 h, 10 μM",[3]; [4],137%
same,CC50 at 24 h,[3],62.5 µM
same,cell viability relative to 0 μM (fig. S5e),RAW264.7 cells; conc. 0.08 μM,111.614 and 102.001
same,cell viability relative to 0 μM (fig. S5e),RAW264.7 cells; conc. 0.28 μM,101.596 and 120.838 and 143.415
same,cell viability relative to 0 μM (fig. S5e),RAW264.7 cells; conc. 0.92 μM,144.954 and 160.091 and 138.541
same,cell viability relative to 0 μM (fig. S5e),RAW264.7 cells; conc. 3.03 μM,169.327 and 148.033 and 125.969
same,cell viability relative to 0 μM (fig. S5e),RAW264.7 cells; conc. 10 μM,154.703 and 140.336
same,BV/TV,"OVX rats; OVX rats, S3-15 oral 10 mg/kg/day 12 weeks, distal femur, 10 mg/kg/day",0.6788 and 0.422 and 0.4058 and 0.5401 and 0.3909 and 0.3235 and 0.4349 and 0.3705 and 0.4806
same,Tb.N,OVX rats; [5],6.402 1/mm and 4.855 1/mm and 5.594 1/mm and 4.923 1/mm and 3.924 1/mm and 4.525 1/mm and 4.231 1/mm and 4.365 1/mm and 4.683 1/mm
same,Tb.Sp,OVX rats; [5],0.05016 mm and 0.1191 mm and 0.1062 mm and 0.09343 mm and 0.1553 mm and 0.1495 mm and 0.1335 mm and 0.1442 mm and 0.1109 mm
same,Tb.Th,OVX rats; [5],0.05016 mm and 0.1191 mm and 0.1062 mm and 0.09343 mm and 0.1553 mm and 0.1495 mm and 0.1335 mm and 0.1442 mm and 0.1109 mm
same,BV/TV of OVX rats,OVX rats,increased

# From article PMC9468151, “Identification of a binding site on soluble RANKL that can be targeted to inhibit soluble RANK-RANKL interactions and treat osteoporosis” (Nature Communications, 2022)
